For the assay, the target named is T1, AM1R (Homo sapiens, UniProt O60895+Q16602).
T1 construct: EYFP; ECFP; expressed in transfected cells; host or cells: HEK-293 (transient co-transfection)
As to the kind of experiment: Activity determination in vitro: cAMP/CRE-luciferase reporter assay in HEK293 cells transiently co-transfected with CLR and RAMP2. In kind it is cell-based. The note with it: for Emax: HEK293, normalized to [G14]ADM(14-52); for EC50: HEK293 with CLR/RAMP2, CRE-luciferase, 3 h stimulation. Here is the method:
(1a) Activity Determination of Adrenomedullin Analogues in vitro
Cell Culture HEK-293 cells (human embryonic kidney cells) were cultured in Ham's F-12/DMEM (1/1; v/v) containing 15% FCS under humidified atmosphere at 37° C. and 5% CO2 in 75 cm^2 cell culture flasks.
Cells were cultured in 75 cm^2 flasks to 70-80% confluency. 45 μl Metafectene® Pro was diluted in 900 ρl Ham's F-12/DMEM (1/1; v/v) and incubated for 20 min at room temperature. 9 μg plasmid containing DNA of CLR fused to EYFP and 3 μg plasmid containing DNA of RAMP2 fused to ECFP were dissolved in 900 μl Ham's F-12/DMEM (1/1; v/v). The plasmid solution was mixed with the Metafectene® Pro solution and incubated for 25 min at room temperature. Medium was removed from the cells and replaced by 6 m1 Ham's F-12/DMEM (1/1; v/v) containing 15% FCS. After addition of transfection solution the cells were incubated for 3 h under humidified atmosphere at 37° C. and 5% CO2. For the second transfection 45 μl Metafectene® Pro was diluted in 900 μl Ham's F-12/DMEM (1/1; v/v) and incubated for 20 min at room temperature. 12 μg of pGL4.29[Luc2P/CRE/Hygro] plasmid containing DNA for the luciferase reporter gene luc2P (with CRE promotor region) were dissolved in 900 μl Ham's F-12/DMEM (1/1; v/v). The plasmid solution was mixed with the Metafectene® Pro solution and incubated for 25 min at room temperature. Medium was removed from the cells and replaced by 6 m1 Ham's F-12/DMEM (1/1; v/v) containing 15% FCS. After addition of transfection solution, the cells were incubated under humidified atmosphere at 37° C. and 5% CO2 over night.
For coating of 96-well-plates, 50 μl of a poly-D-lysine solution in DPBS (0.1 mg/ml) were pipetted in each well and incubated for 40 min. After removal of poly-D-lysine, each well was washed with 50 μl DPBS. Transiently transfected cells were detached from the cell culture flask by removal of the medium, 2-fold washing with 5 m1 DPBS and resuspending in 40 m1 Ham's F-12/DMEM (1/1; v/v) containing 15% FCS. 90,000 to 120,000 cells in 150 μl Ham's F-12/DMEM (1/1; v/v) containing 15% FCS were seeded per well and the plates were incubated under humidified atmosphere at 37° C. and 5% CO2 over night.
For each ligand, a serial dilution with eight different concentrations was prepared using Ham's F^12/DMEM (1/1; v/v). Before stimulation, the medium on the cells was replaced by 100 μl Ham's F^12/DMEM (1/1; v/v) and the plates were incubated for 1 h under humidified atmosphere at 37° C. and 5% CO2. For stimulation, the medium was removed and the cells were incubated for 3 h in 80 μl of ligand-solution under humidified atmosphere at 37° C. and 5% CO2. In addition 80 μl of a 5 μM forskolin solution in Ham's F-12/DMEM (1/1; v/v) was used as a positive control and 80 μl of Ham's F-12/DMEM (1/1; v/v) as a negative control. Each concentration and the controls were tested as triplicates.
After 3 h of stimulation, the solutions were removed and the cells were washed with 50 μl of Ham's F-12/DMEM (1/1; v/v) perwell. After 10 m incubation in 30 μl of Ham's F-12/DMEM (1/1; v/v) at room temperature, 30 μl of luciferase-solution (ONE-Glo™ Luciferase Assay System) was added and the luminescence was directly measured using an Infinite M200 (Tecan).
Data analysis of the luminescence measurement was carried out with GraphPad Prism 5. Therefore, the measured luminescence values of each plate were first corrected on the base of the respective average of forskolin stimulation. Afterwards they were normalized to [G14]ADM(14-52), which was used as standard peptide in every assay. After correction and normalization, data was analyzed using non-linear regression giving dose-response curves for each tested ligand.

Positions of bridges follow the written chain, without caps; N, C: chain ends. Non-standard residues stand in square brackets, D forms with d. Residues, ends and D or L forms follow the SMILES beside them. PEG4 = NCCOCCOCCOCCOCCC(=O)O; AEEEA = NCCOCCOCCOCC(=O)O; PEG3 = NCCOCCOCCOCCC(=O)O

T1 sequence (Q16602 23-461): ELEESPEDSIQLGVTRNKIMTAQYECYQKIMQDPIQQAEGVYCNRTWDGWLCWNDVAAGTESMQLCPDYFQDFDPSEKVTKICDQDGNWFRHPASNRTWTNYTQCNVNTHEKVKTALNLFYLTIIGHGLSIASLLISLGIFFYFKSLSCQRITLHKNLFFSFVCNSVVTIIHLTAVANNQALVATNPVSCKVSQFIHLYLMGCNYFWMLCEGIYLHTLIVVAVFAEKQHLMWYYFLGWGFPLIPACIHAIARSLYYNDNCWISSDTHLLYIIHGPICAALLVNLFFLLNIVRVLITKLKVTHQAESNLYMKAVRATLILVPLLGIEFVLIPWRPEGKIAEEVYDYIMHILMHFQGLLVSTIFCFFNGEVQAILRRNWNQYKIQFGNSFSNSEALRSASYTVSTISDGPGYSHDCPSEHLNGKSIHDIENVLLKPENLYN
T1 sequence (O60895 43-175): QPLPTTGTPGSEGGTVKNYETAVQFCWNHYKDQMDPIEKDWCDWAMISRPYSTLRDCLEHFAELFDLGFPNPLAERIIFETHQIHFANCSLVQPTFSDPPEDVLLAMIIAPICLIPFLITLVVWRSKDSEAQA

`CC[C@H](C)[C@H](NC(=O)[C@H](CCC(N)=O)NC(=O)[C@H](Cc1c[nH]cn1)NC(=O)[C@H](C)NC(=O)[C@H](CC(C)C)NC(=O)[C@H](CCCCN)NC(=O)[C@H](CCC(N)=O)NC(=O)[C@@H](NC(=O)[C@@H](NC(=O)[C@@H]1CSSC[C@H](NC(=O)CNC(=O)CN)C(=O)N[C@@H](CCCNC(=N)N)C(=O)N[C@@H](Cc2ccccc2)C(=O)NCC(=O)N[C@@H]([C@@H](C)O)C(=O)N1)[C@@H](C)O)C(C)C)C(=O)N[C@@H](Cc1ccc(O)cc1)C(=O)N[C@@H](CCC(N)=O)C(=O)N[C@@H](Cc1ccccc1)C(=O)N[C@H](C(=O)NCCOCCOCCOCC(=O)N[C@@H](CC(=O)O)C(=O)N[C@@H](CC(N)=O)C(=O)N[C@H](C(=O)N[C@@H](C)C(=O)N1CCC[C@H]1C(=O)N[C@@H](CCCNC(=N)N)C(=O)N[C@@H](CO)C(=O)N[C@@H](CCCCN)C(=O)N[C@H](C(=O)N[C@@H](CO)C(=O)N1CCC[C@H]1C(=O)N[C@@H](CCC(N)=O)C(=O)NCC(=O)N[C@@H](Cc1ccc(O)cc1)C(N)=O)[C@@H](C)CC)C(C)C)[C@@H](C)O` [Example 6, ((4R,7S,13S,16S,19R)-19-(2-(2-aminoacetamido)acetamido)-13-benzyl-16-(3-guanidinopropyl)-7-((R)-1-hydroxyethyl)-6,9,12,15,18-pentaoxo-1,2-dithia-5,8,11,14,17-pentaazacycloicosane-4-carbonyl)-L-threonyl-ADM(23-34)-(2-(2-(2-(2-(k2-azaneyl)ethoxy)ethoxy)ethoxy)acetyl)-L-aspartyl-ADM(40-52)] (H-GGCRFGTCTVQKLAHQIYQFT[AEEEA]DNVAPRSKISPQGY-NH2; disulfide 3-8) came in with an Emax of 95 ± 7% and a half-maximal effective concentration (EC50) of 21 nM.

Consider `CC[C@H](C)[C@H](NC(=O)[C@H](CCC(N)=O)NC(=O)[C@H](Cc1c[nH]cn1)NC(=O)[C@H](C)NC(=O)[C@H](CC(C)C)NC(=O)[C@H](CCCCN)NC(=O)[C@H](CCC(N)=O)NC(=O)[C@@H](NC(=O)[C@@H](NC(=O)[C@@H]1CSSC[C@H](NC(=O)CNC(=O)CN)C(=O)N[C@@H](CCCNC(=N)N)C(=O)N[C@@H](Cc2ccccc2)C(=O)NCC(=O)N[C@@H]([C@@H](C)O)C(=O)N1)[C@@H](C)O)C(C)C)C(=O)N[C@@H](Cc1ccc(O)cc1)C(=O)N[C@@H](CCC(N)=O)C(=O)N[C@@H](Cc1ccccc1)C(=O)N[C@H](C(=O)NCCOCCOCCOCCC(=O)N[C@@H](CC(=O)O)C(=O)N[C@@H](CC(N)=O)C(=O)N[C@H](C(=O)N[C@@H](C)C(=O)N1CCC[C@H]1C(=O)N[C@@H](CCCNC(=N)N)C(=O)N[C@@H](CO)C(=O)N[C@@H](CCCCN)C(=O)N[C@H](C(=O)N[C@@H](CO)C(=O)N1CCC[C@H]1C(=O)N[C@@H](CCC(N)=O)C(=O)NCC(=O)N[C@@H](Cc1ccc(O)cc1)C(N)=O)[C@@H](C)CC)C(C)C)[C@@H](C)O` [Example 7, ((4R,7S,13S,16S,19R)-19-(2-(2-aminoacetamido)acetamido)-13-benzyl-16-(3-guanidinopropyl)-7-((R)-1-hydroxyethyl)-6,9,12,15,18-pentaoxo-1,2-dithia-5,8,11,14,17-pentaazacycloicosane-4-carbonyl)-L-threonyl-ADM(23-34)-(3-(2-(2-(2-(λ^2-azaneyl)ethoxy)ethoxy)ethoxy)propanoyl)-L-aspartyl-ADM(40-52)] (H-GGCRFGTCTVQKLAHQIYQFT[PEG3]DNVAPRSKISPQGY-NH2; disulfide 3-8), for which the Emax stood at 103 ± 4% and a half-maximal effect (EC50) was put at 13 nM.

`CC[C@H](C)[C@H](NC(=O)[C@H](CCC(N)=O)NC(=O)[C@H](Cc1c[nH]cn1)NC(=O)[C@H](C)NC(=O)[C@H](CC(C)C)NC(=O)[C@H](CCCCN)NC(=O)[C@H](CCC(N)=O)NC(=O)[C@@H](NC(=O)[C@@H](NC(=O)[C@@H]1CSSC[C@H](NC(=O)CNC(=O)CN)C(=O)N[C@@H](CCCNC(=N)N)C(=O)N[C@@H](Cc2ccccc2)C(=O)NCC(=O)N[C@@H]([C@@H](C)O)C(=O)N1)[C@@H](C)O)C(C)C)C(=O)N[C@@H](Cc1ccc(O)cc1)C(=O)N[C@@H](CCC(N)=O)C(=O)N[C@@H](Cc1ccccc1)C(=O)N[C@H](C(=O)NCCOCCOCCOCCOCCC(=O)N[C@@H](CC(N)=O)C(=O)N[C@H](C(=O)N[C@@H](C)C(=O)N1CCC[C@H]1C(=O)N[C@@H](CCCNC(=N)N)C(=O)N[C@@H](CO)C(=O)N[C@@H](CCCCN)C(=O)N[C@H](C(=O)N[C@@H](CO)C(=O)N1CCC[C@H]1C(=O)N[C@@H](CCC(N)=O)C(=O)NCC(=O)N[C@@H](Cc1ccc(O)cc1)C(N)=O)[C@@H](C)CC)C(C)C)[C@@H](C)O` [Example 8, ((4R,7S,13S,16S,19R)-19-(2-(2-aminoacetamido)acetamido)-13-benzyl-16-(3-guanidinopropyl)-7-((R)-1-hydroxyethyl)-6,9,12,15,18-pentaoxo-1,2-dithia-5,8,11,14,17-pentaazacycloicosane-4-carbonyl)-L-threonyl-ADM(23-34)-(1-(λ^2-azaneyl)-3,6,9,12-tetraoxapentadecan-15-oyl)-L-asparagyl-ADM(41-52)] (H-GGCRFGTCTVQKLAHQIYQFT[PEG4]NVAPRSKISPQGY-NH2; disulfide 3-8) had a maximum response (Emax) of 95 ± 3% and a concentration for a half-maximal effect (EC50) of 16 nM.

For the compound `CC[C@H](C)[C@H](NC(=O)[C@H](CCC(N)=O)NC(=O)[C@H](Cc1c[nH]cn1)NC(=O)[C@H](C)NC(=O)[C@H](CC(C)C)NC(=O)[C@H](CCCCN)NC(=O)[C@H](CCC(N)=O)NC(=O)[C@@H](NC(=O)[C@@H](NC(=O)[C@@H]1CSSC[C@H](NC(=O)CNC(=O)CN)C(=O)N[C@@H](CCCNC(=N)N)C(=O)N[C@@H](Cc2ccccc2)C(=O)NCC(=O)N[C@@H]([C@@H](C)O)C(=O)N1)[C@@H](C)O)C(C)C)C(=O)N[C@@H](Cc1ccc(O)cc1)C(=O)N[C@@H](CCC(N)=O)C(=O)N[C@@H](Cc1ccccc1)C(=O)N[C@H](C(=O)N[C@@H](CC(=O)O)C(=O)NCCOCCOCCOCCC(=O)N[C@@H](CC(N)=O)C(=O)N[C@H](C(=O)N[C@@H](C)C(=O)N1CCC[C@H]1C(=O)N[C@@H](CCCNC(=N)N)C(=O)N[C@@H](CO)C(=O)N[C@@H](CCCCN)C(=O)N[C@H](C(=O)N[C@@H](CO)C(=O)N1CCC[C@H]1C(=O)N[C@@H](CCC(N)=O)C(=O)NCC(=O)N[C@@H](Cc1ccc(O)cc1)C(N)=O)[C@@H](C)CC)C(C)C)[C@@H](C)O` [Example 9, ((4R,7S,13S,16S,19R)-19-(2-(2-aminoacetamido)acetamido)-13-benzyl-16-(3-guanidinopropyl)-7-((R)-1-hydroxyethyl)-6,9,12,15,18-pentaoxo-1,2-dithia-5,8,11,14,17-pentaazacycloicosane-4-carbonyl)-L-threonyl-ADM(23-35)-(3-(2-(2-(2-(λ^2-azaneyl)ethoxy)ethoxy)ethoxy)propanoyl)-L-asparagyl-ADM(41-52)] (H-GGCRFGTCTVQKLAHQIYQFTD[PEG3]NVAPRSKISPQGY-NH2; disulfide 3-8), the Emax stood at 87 ± 4% and the 50% effective concentration (EC50) stood at 49 nM.
